Measurements published in patent US20110251238A1, “PPAR AGONIST COMPOSITIONS AND METHODS OF USE” (BIOPHARMED, priority 2008, published 2011).
Values after ≈ are worked out from the molar mass of the structure shown. Where two headings read alike, the source gives them in different places.

Tests used:
KaKa = experiment: Growth inhibition, MTT colorimetric assay, KaKa; type: cell-based; settings: read-out: IC50 KaKa
Procedure: (§1) Compounds that met the criteria for activity on KB3 cells were further tested for drug growth inhibitory activity in 5 carcinoma, 6 glioma and 3 melanoma cell lines, shown in Table 4. A549 (human lung adenocarcinoma epithelial), BxPC3 (pancreatic cancer), LoVo (colon cancer), MCF-7 (epithelial breast cancer), PC3 (human prostate cancer), Hs683 (human glioma), T98G (glioblastoma), U373 (human glioblastoma-astrocytoma), U138 MG (human glioma), epithelial-like), SKMEL28 (human melanoma), B16-F10 (mouse melanoma) and RhTP (rhabdomyosarcoma) cell lines were cultured in presence of the drugs for 3 days. The cytotoxic activity is expressed as (IC50). Inhibition of cell proliferation measured by the MTT colorimetric assay. The values reported in Table 4 are means of six distinct values. The standard errors are <5% as compared to the mean values.

GL19 = experiment: Growth inhibition, MTT colorimetric assay, GL19; type: cell-based; settings: read-out: IC50 GL19
Procedure: as §1

T98G (glioblastoma) = experiment: cells; type: cell-based; settings: read-out: IC50 T98G
Procedure: as §1, with “A549” for “Compounds that met the criteria for activity on KB3 cells were further tested for drug growth inhibitory activity in 5 carcinoma, 6 glioma and 3 melanoma cell lines, shown in Table 4. A549”, “values.” for “values. The standard errors are <5% as compared to the mean values.”

[1] = test system: MCF-7 (epithelial breast cancer); experiment: Growth inhibition, MTT colorimetric assay, MCF7; type: cell-based; settings: read-out: IC50 MCF7
Procedure: as §1, with “A549” for “Compounds that met the criteria for activity on KB3 cells were further tested for drug growth inhibitory activity in 5 carcinoma, 6 glioma and 3 melanoma cell lines, shown in Table 4. A549”, “values.” for “values. The standard errors are <5% as compared to the mean values.”

[2] = test system: KB3 (epitheloid lung cancer) cell lines; experiment: Cell growth inhibition (cytotoxicity), MTS assay, KB3 cell line; type: cell-based; settings: Table 3A, MTS assay, triplicate, read-out: KB3 IC50
Procedure: Cell growth inhibition was determined by the MTS assay; the number of viable cells were proportional to the extent of formazan production in the presence or absence of drugs. […]

[3] = test system: BxPC3 (pancreatic cancer); experiment: Growth inhibition, MTT colorimetric assay, BxPC3; type: cell-based, human; settings: read-out: IC50 BxPC3
Procedure: Cells are cultured at 37° C. in Falcon culture dishes, incubated at 5% CO2 in a suitable culture medium available from Invitrogen Corp. Anti-proliferative activity is determined by an MTT assay (bromide of (3-[4,5-dimethylthiazolium-yl]diphenyltetrazolium)). According to one standard protocol, absorbance is measured at 570 nm (see Dumont et al. (2007) Neoplasia 9: 766-776.
as §1, with “A549” for “Compounds that met the criteria for activity on KB3 cells were further tested for drug growth inhibitory activity in 5 carcinoma, 6 glioma and 3 melanoma cell lines, shown in Table 4. A549”, “values.” for “values. The standard errors are <5% as compared to the mean values.”

RhTP (rhabdomyosarcoma) = experiment: Growth inhibition, MTT colorimetric assay, RhTp; type: cell-based; settings: read-out: IC50 RhTp
Procedure: as §1

Host = experiment: Growth inhibition, MTT colorimetric assay, Host; type: cell-based; settings: read-out: IC50 Host
Procedure: as §1

B16-F10 (mouse melanoma) = experiment: Growth inhibition, MTT colorimetric assay, B16F10; type: cell-based; settings: read-out: IC50 B16F10
Procedure: as §1

[4] = test system: bloodstream forms of T. brucei and T. congolense; experiment: Trypanocidal activity in vitro, Alamar Blue assay; type: cell-based, Trypanosoma brucei and T. congolense
Source text: Trypanosoma brucei and T. congolense are the causative agents of sleeping sickness in humans and nagana in cattle, respectively. The protozoan parasites live extracellularlyin blood and tissue fluids of mammals and are transmitted by the bite of infected tsetse flies (Glossina spp.). Here the trypanocidal activity against bloodstream forms of T. brucei and T. congolense of bis-8-hydroxy quinoline N-substituted benzylamines derivatives was investigated in vitro, according to methods described in. Steverding et al. (2006) Kinetoplastid Biology and Disease, 5(3): 1-5; Hongmance et al., (2007) Antimicrob. Agents Chemother. 51:1105-1106; and Zhao et al., (2005) Bio-org. Med. Chem.; 13: 3921-3926. Cells were seeded into 96-well tissue culture plates in 200 μl medium containing various concentrations of analogues dissolved in H2O. The controls contained the respective solvent alone. […] After 24 h (trypanosomes) or 43 h (HL-60) incubation, 20 μl of the colorimetric viability indicator Alamar Blue® was added to each well. The cells were incubated for a further 24 h (trypanosomes) or 5 h (HL-60) so that the total incubation time was 48 h. Then, the plates were read on a Dynatech MR5000ELISA reader (Denkendorf, Germany),using a test wavelength of 550 nm and a reference wave length of 630 nm. Each test was set up in duplicate and repeated three times. For comparison, the general cytotoxicity of the compounds was assayed with human myeloid leukaemia HL-60 cells. The anti-trypanosomal activities and the general cytotoxicities of the new analogues were evaluated using the Alamar Blue® assay.

Hs683 (human glioma) = experiment: Growth inhibition, MTT colorimetric assay, HS683; type: cell-based; settings: read-out: IC50 HS683
Procedure: as §1, with “A549” for “Compounds that met the criteria for activity on KB3 cells were further tested for drug growth inhibitory activity in 5 carcinoma, 6 glioma and 3 melanoma cell lines, shown in Table 4. A549”, “values.” for “values. The standard errors are <5% as compared to the mean values.”

LoVo (colon cancer) = experiment: Growth inhibition, MTT colorimetric assay, LoVo; type: cell-based; settings: read-out: IC50 LoVo
Procedure: as §1, with “A549” for “Compounds that met the criteria for activity on KB3 cells were further tested for drug growth inhibitory activity in 5 carcinoma, 6 glioma and 3 melanoma cell lines, shown in Table 4. A549”, “values.” for “values. The standard errors are <5% as compared to the mean values.”

U138 MG (human glioma) = experiment: Growth inhibition, MTT colorimetric assay, U138; type: cell-based; settings: read-out: IC50 U138
Procedure: as §1

[5] = test system: U373 (human glioblastoma-astrocytoma); experiment: Growth inhibition, MTT colorimetric assay, U373; type: cell-based; settings: read-out: IC50 U373
Procedure: as §1

[6] = test system: A549 (human lung adenocarcinoma epithelial); experiment: Growth inhibition, MTT colorimetric assay, A549; type: cell-based; settings: read-out: IC50 A549
Procedure: as §1, with “A549” for “Compounds that met the criteria for activity on KB3 cells were further tested for drug growth inhibitory activity in 5 carcinoma, 6 glioma and 3 melanoma cell lines, shown in Table 4. A549”, “values.” for “values. The standard errors are <5% as compared to the mean values.”

[7] = test system: PC3 (human prostate cancer); experiment: Growth inhibition, MTT colorimetric assay, PC3; type: cell-based; settings: read-out: IC50 PC3
Procedure: as §1

SKMEL28 (human melanoma) = experiment: Growth inhibition, MTT colorimetric assay, SKMEL-28; type: cell-based; settings: read-out: IC50 SKMEL-28
Procedure: as §1

[8] = 3 days with drug, means of six values, unit inferred
[9] = glioma, 3 days with drug, means of six values, unit inferred
[10] = carcinoma, 3 days with drug, means of six values, unit inferred
[11] = melanoma, 3 days with drug, means of six values, unit inferred
[12] = 50% growth inhibition, 48 h total incubation, read-out: GI50
[13] = lowest concentration at which all cells were killed, 48 h total incubation, read-out: MIC
[14] = 72 h, 3 days with drug, means of six values, unit inferred

Row | Compound | IC50 (KaKa; [8]) [µM] | IC50 (GL19; [8]) [µM] | IC50 (T98G (glioblastoma); [9]) [nM] | IC50 [1, 10] [nM] | IC50 [3, 10] [nM] | IC50 (RhTP (rhabdomyosarcoma); [8]) [nM] | IC50 (Host; [8]) [nM] | IC50 (B16-F10 (mouse melanoma); [11]) [nM] | GI50 [4, 12] [nM] | MIC [4, 13] [µM] | IC50 (Hs683 (human glioma); [9]) [nM] | IC50 (LoVo (colon cancer); [10]) [nM] | IC50 (U138 MG (human glioma); [9]) [nM] | IC50 [5, 9] [nM] | IC50 [6, 10] [nM] | IC50 [7, 10] [nM] | IC50 (SKMEL28 (human melanoma); [11]) [µM] | IC50 ([2]; KB3) [nM] | also measured
1 | 5,5′-(3,5-bis(trifluorométhyl)benzylazanediyl)bis(méthylène)diquinoléin-8-ol [BPM18,201] | 0.098 | 2.14 | 72 | 38 | 79 | 47 | 146 | 76 | 320 ± 10 | 1 | 181 | 10 | 46 | 96 | 9 | 71 | > 10 | – | IC50 [2]: 1000 nM
2 | Oc1ccc(CN(Cc2cccs2)Cc2ccc(O)c3ncccc23)c2cccnc12 [BPM18,202, 5,5′-(thiophen-2-ylmethylazanediyl)bis(methylene)diquinolin-8-ol] | – | – | – | – | – | – | – | – | – | – | – | – | – | – | – | – | – | 2 | IC50 (KaKa; 72 h): 1.76 µM; IC50 (GL19; GL19, 72 h): 3.45 µM; IC50 (T98G (glioblastoma); Homo sapiens, T98G, 72 h): 88 nM; IC50 ([1]; Homo sapiens, MCF7, 72 h): 35 nM; IC50 ([3]; Homo sapiens, BXPC-3, 72 h): 89 nM; IC50 (RhTP (rhabdomyosarcoma); 72 h): 79 nM; IC50 (Host; 72 h): 1730 nM; IC50 (B16-F10 (mouse melanoma); Mus musculus, B16-F10, 72 h): 86 nM; GI50 ([4]; 48 h): 310 ± 10 nM; MIC ([4]; 48 h): 1 µM (≈ 0.428 µg/mL); IC50 (Hs683 (human glioma); Homo sapiens, Hs 683, 72 h): 35 nM; IC50 (LoVo (colon cancer); Homo sapiens, LoVo, 72 h): 40 nM; IC50 (U138 MG (human glioma); Homo sapiens, U138-MG, 72 h): 44 nM; IC50 ([5]; Homo sapiens, U373 MG, 72 h): 85 nM; IC50 ([6]; Homo sapiens, A549, 72 h): 27 nM; IC50 ([7]; Homo sapiens, 72 h): 44 nM; IC50 (SKMEL28 (human melanoma); Homo sapiens, SK-MEL-28, 72 h): 4.83 µM
3 | Oc1ccc(CN(Cc2cccc(I)c2)Cc2ccc(O)c3ncccc23)c2cccnc12 [BPM19,200, 5,5′-(3-iodobenzylazanediyl)bis(methylene)diquinolin-8-ol] | – | – | – | – | – | – | – | – | – | – | – | – | – | – | – | – | – | 1000 | IC50 (KaKa; [14]): 7.68 µM; IC50 (GL19; GL19, 72 h, 3 days with drug, means of six values, unit inferred): > 10 µM; IC50 (T98G (glioblastoma); Homo sapiens, T98G, 72 h, glioma, 3 days with drug, means of six values, unit inferred): 446 nM; IC50 ([1]; Homo sapiens, MCF7, 72 h, carcinoma, 3 days with drug, means of six values, unit inferred): 374 nM; IC50 ([3]; Homo sapiens, BXPC-3, 72 h, carcinoma, 3 days with drug, means of six values, unit inferred): 3810 nM; IC50 (RhTP (rhabdomyosarcoma); [14]): 788 nM; IC50 (Host; [14]): 2980 nM; IC50 (B16-F10 (mouse melanoma); Mus musculus, B16-F10, 72 h, melanoma, 3 days with drug, means of six values, unit inferred): 888 nM; IC50 (Hs683 (human glioma); Homo sapiens, Hs 683, 72 h, glioma, 3 days with drug, means of six values, unit inferred): 479 nM; IC50 (LoVo (colon cancer); Homo sapiens, LoVo, 72 h, carcinoma, 3 days with drug, means of six values, unit inferred): 393 nM; IC50 (U138 MG (human glioma); Homo sapiens, U138-MG, 72 h, glioma, 3 days with drug, means of six values, unit inferred): 430 nM; IC50 ([5]; Homo sapiens, U373 MG, 72 h, glioma, 3 days with drug, means of six values, unit inferred): 5600 nM; IC50 ([6]; Homo sapiens, A549, 72 h, carcinoma, 3 days with drug, means of six values, unit inferred): 350 nM; IC50 ([7]; Homo sapiens, 72 h, carcinoma, 3 days with drug, means of six values, unit inferred): 394 nM; IC50 (SKMEL28 (human melanoma); Homo sapiens, SK-MEL-28, 72 h, melanoma, 3 days with drug, means of six values, unit inferred): 9.85 µM
4 | Oc1ccc(CN(Cc2ccc(O)c3ncccc23)CC2CCCCC2)c2cccnc12 [BPM19,219, 5,5′-cyclohexylmethylazanediyl-bis-[(methylene)di(quinolin-8-ol)]] | 5.94 | 8.97 | 486 | 365 | 3810 | 865 | 1540 | 873 | 2950 ± 180 | 10 (≈ 4.28 µg/mL) | 584 | 357 | 446 | 2570 | 369 | 421 | > 10 | – | –
